US10077261B2, “Imidazolin-5-one derivative useful as FASN inhibitors for the treatment of cancer” (Janssen Pharmaceutica NV, priority 2012, dated 2018)

Target: T1, hFASN enzyme (full length) (Homo sapiens, UniProt P49327)
T1 construct: 10 μL hFASN enzyme (full length, 300 ng, purified in house); made in house
Assay: Fatty Acid Synthase (FASN) inhibition scintillation proximity assay
Assay type: biochemical
Conditions: for inhibition at 10 µM: read-out: Human FASN % inhibition @ 10 μM, 10 μM test compound; for IC50: read-out: Human FASN pIC50 (converted)
Procedure: In this assay, inhibition of FASN activity is measured using ^3H-acetyl-CoA and malonyl-CoA as substrates. ^3H-Acetyl CoA is converted to ^3H-palmitate through a series of reactions by the FASN protein, which contains 7 functional domains and carries out 7 enzymatic reactions to ultimately produce ^3H-palmitate. The assay principle is based upon the fact that ^3H-acetyl-CoA is hydrophilic and the end product, ^3H-palmitate is hydrophobic.
10 μL assay buffer (100 mM KH2PO4 pH 7.5, 1 mM DTT) (20 μL in blanks) was added to a 384-well white optiplate plate (Perkin Elmer). 0.9 μL test compound (at concentrations of 30 μM, 10 μM, 3 μM, 1 μM, 0.30 μM, 0.10 μM, 0.03 μM and 0.01 μM)/DMSO and 10 μL hFASN enzyme (full length, 300 ng, purified in house) or 10 μL assay buffer was added to the wells. […] The reaction was stopped by adding 20 μL Streptavidin coupled imaging beads (25 mg/ml). After incubation for 30 minutes at room temperature in the dark, the 384 well plate was centrifuged at 1500 rpm for 3 minutes and was measured after at least 24 hrs by the LEADseeker™, measuring emission using a 610±20 nm pass filter.
where mLC and mHC were the means of the low control wells and high control wells on the plate, after manual exclusion of outliers. A plot of Controlmin versus test compound concentration was fitted to a 4-parameter logistic curve using a non-linear least squares regression method.

T1 sequence (P49327 whole entry): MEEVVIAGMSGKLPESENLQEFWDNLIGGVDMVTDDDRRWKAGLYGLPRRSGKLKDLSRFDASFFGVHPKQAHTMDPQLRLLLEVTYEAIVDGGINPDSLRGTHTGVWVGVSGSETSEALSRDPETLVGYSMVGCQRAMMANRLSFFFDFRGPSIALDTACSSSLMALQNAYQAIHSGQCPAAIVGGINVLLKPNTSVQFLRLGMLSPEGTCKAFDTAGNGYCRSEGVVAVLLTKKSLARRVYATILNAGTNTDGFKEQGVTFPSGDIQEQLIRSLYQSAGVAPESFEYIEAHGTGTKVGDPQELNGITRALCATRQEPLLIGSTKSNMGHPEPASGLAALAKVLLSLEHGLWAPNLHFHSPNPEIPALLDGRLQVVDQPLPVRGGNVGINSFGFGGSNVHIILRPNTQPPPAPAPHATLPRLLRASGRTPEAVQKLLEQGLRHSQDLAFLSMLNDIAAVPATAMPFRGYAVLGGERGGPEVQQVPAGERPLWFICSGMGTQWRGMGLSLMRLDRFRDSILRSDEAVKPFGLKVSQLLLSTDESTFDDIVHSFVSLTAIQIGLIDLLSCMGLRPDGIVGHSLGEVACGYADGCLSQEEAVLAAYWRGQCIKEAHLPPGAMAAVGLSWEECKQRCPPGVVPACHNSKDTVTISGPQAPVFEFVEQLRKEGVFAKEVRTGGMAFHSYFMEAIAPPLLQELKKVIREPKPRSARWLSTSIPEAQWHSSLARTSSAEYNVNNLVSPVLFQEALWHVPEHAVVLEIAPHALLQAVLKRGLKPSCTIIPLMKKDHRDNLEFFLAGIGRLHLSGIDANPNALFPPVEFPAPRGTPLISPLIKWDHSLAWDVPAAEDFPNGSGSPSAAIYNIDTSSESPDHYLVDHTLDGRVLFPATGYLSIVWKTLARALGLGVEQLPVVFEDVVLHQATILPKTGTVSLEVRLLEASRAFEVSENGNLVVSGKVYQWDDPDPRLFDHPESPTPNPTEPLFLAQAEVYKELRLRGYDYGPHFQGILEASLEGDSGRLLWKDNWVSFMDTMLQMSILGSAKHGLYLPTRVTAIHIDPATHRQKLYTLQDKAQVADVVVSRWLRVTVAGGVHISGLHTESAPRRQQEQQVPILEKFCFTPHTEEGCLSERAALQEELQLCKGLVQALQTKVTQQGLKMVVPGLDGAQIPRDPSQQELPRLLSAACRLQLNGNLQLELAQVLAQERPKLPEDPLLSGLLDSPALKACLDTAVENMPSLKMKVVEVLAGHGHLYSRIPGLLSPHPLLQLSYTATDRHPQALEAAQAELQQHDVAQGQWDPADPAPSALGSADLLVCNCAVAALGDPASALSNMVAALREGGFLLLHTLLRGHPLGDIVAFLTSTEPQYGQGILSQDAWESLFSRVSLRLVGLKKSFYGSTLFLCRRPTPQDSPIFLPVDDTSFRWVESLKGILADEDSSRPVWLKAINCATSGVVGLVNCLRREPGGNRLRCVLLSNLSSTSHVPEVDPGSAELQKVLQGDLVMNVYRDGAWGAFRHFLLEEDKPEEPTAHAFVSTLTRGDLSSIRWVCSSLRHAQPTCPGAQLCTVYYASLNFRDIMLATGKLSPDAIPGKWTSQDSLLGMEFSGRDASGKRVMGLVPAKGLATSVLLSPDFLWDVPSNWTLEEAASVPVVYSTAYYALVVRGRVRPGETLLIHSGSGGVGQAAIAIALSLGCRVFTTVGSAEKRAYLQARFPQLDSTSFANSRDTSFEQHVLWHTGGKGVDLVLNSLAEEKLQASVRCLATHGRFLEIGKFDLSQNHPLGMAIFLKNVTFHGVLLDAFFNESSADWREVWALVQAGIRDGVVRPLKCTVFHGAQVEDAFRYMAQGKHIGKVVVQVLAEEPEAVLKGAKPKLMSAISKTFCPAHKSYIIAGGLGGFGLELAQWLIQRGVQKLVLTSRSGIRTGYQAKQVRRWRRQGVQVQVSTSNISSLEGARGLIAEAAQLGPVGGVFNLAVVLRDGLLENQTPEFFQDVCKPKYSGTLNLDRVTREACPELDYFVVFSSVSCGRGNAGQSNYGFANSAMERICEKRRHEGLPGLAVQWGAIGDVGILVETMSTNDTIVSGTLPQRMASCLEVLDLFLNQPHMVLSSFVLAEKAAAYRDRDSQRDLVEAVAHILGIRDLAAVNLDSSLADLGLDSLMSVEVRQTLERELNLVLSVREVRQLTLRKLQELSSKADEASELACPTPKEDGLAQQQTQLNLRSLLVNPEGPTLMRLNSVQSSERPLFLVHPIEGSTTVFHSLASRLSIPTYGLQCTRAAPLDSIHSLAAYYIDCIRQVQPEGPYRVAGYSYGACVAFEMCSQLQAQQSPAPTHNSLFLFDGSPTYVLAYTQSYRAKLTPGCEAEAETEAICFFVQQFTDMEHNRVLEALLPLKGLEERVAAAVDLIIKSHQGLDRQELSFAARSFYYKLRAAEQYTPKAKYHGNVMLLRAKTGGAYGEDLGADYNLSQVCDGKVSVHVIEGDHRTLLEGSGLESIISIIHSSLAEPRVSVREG

Structure (SMILES) | inhibition at 10 µM [%] | IC50 [µM]
Cn1ncc2cc(-c3ccc(C4=NC5(CCN(C(=O)C(F)(F)F)CC5)C(=O)N4CC4CN(C(=O)C5CC5)C4)cc3)ccc21 [compound 964, 3-((1-(cyclopropanecarbonyl)azetidin-3-yl)methyl)-2-(4-(1-methyl-1H-indazol-5-yl)phenyl)-8-(2,2,2,-trifluoroacetyl)-1,3,8-triazaspiro[4.5]dec-1-en-4-one] | 41 | ~11
Cc1cc(-c2cnc3c(c2)OCCN3C)ccc1C1=NC2(CCCC2)C(=O)N1C[C@@H]1CCN(C(=O)C2CC2)C1 [compound 822, (R)-3-((1-(cyclopropanecarbonyl)pyrrolidin-3-yl)methyl)-2-(2-methyl-4-(4-methyl-3,4-dihydro-2H-pyrido[3,2-b][1,4]oxazin-7-yl)phenyl)-1,3-diazaspiro[4.4]non-1-en-4-one] | 25 | > 10
O=C(C1CC1)N1CC[C@@H](CN2C(=O)C3(CC3)N=C2c2ccc(-c3ccc(C(F)(F)F)cc3)cc2)C1 [compound 104, 6-{[(3R)-1-(Cyclopropylcarbonyl)pyrrolidin-3-yl]methyl}-5-[4′-(trifluoromethyl)biphenyl-4-yl]-4,6-diazaspiro[2.4]hept-4-en-7-one] | 71.7 | 3.24
CS(=O)(=O)N1CCC2(CC1)N=C(c1ccc(-c3ccc4occc4c3)cc1)N(CC1CN(C(=O)C3CC3)C1)C2=O [compound 760, 2-[4-(1-Benzofuran-5-yl)phenyl]-3-{[1-(cyclopropylcarbonyl)azetidin-3-yl]methyl}-8-(methylsulfonyl)-1,3,8-triazaspiro[4.5]dec-1-en-4-one] | 62 | 4.79
O=C(N1CC(CN2C(=O)C3(CCOCC3)N=C2c2ccc(-c3ccc4cccnc4c3)cc2)C1)C(F)(F)F [compound 910, 2-(4-(quinolin-7-yl)phenyl)-3-((1-(2,2,2-trifluoroacetyl)azetidin-3-yl)methyl)-8-oxa-1,3-diazaspiro[4.5]dec-1-en-4-one] | 12 | > 10
Cn1ncc2cc(-c3ccc(C4=NC5(CC5)C(=O)N4C[C@H]4CCCN(C(=O)C5CC5)C4)cc3)ccc21 [compound 819, (S)-6-((1-(cyclopropanecarbonyl)piperidin-3-yl)methyl)-5-(4-(1-methyl-1H-indazol-5-yl)phenyl)-4,6-diazaspiro[2.4]hept-4-en-7-one] | 10 | –
Cn1ncc2cc(-c3ccc(C4=NC5(CCN(S(C)(=O)=O)CC5)C(=O)N4CC4CN(C(=O)C5CC5)C4)cc3)ccc21 [compound 761, 3-{[1-(Cyclopropylcarbonyl)azetidin-3-yl]methyl}-2-[4-(1-methyl-1H-indazol-5-yl)phenyl]-8-(methylsulfonyl)-1,3,8-triazaspiro[4.5]dec-1-en-4-one] | 45 | ~7.59
CC(O)C(=O)N1CC(CN2C(=O)C3(CCOC3)N=C2c2ccc(-c3ccc4occc4c3)cc2)C1 (stereo not shown) [compound 719, 2-[4-(1-Benzofuran-5-yl)phenyl]-3-{[1-(2-hydroxypropanoyl)azetidin-3-yl]methyl}-7-oxa-1,3-diazaspiro[4.4]non-1-en-4-one] | 67 | 3.89
CC(O)C(=O)N1CC[C@@H](CN2C(=O)C3(CCOCC3)N=C2c2ccc(-c3ccc4c(cnn4C)c3)cc2)C1 (stereo partly drawn) [compound 673, 3-{[(3R)-1-(2-Hycdroxypropanoyl)pyrrolidin-3-yl]methyl}-2-[4-(1-methyl-1H-indazol-5-yl)phenyl]-8-oxa-1,3-diazaspiro[4.5]dec-1-en-4-one] | 61 | 5.5
Cn1ncc2cc(-c3ccc(C4=NC5(CCN(CCO)CC5)C(=O)N4CC4CN(C(=O)C5CC5)C4)cc3)ccc21 [compound 170, 3-{[1-(Cyclopropylcarbonyl)azetidin-3-yl]methyl}-8-(2-hydroxyethyl)-2-[4-(1-methyl-1H-indazol-5-yl)phenyl]-1,3,8-triazaspiro[4.5]dec-1-en-4-one] | 55.6 | 7.94
